Source: US20100069854A1, “Elastomeric Devices Containing Chlorhexidine/Fatty Acid Salts Made From Fatty Acids of 12 to 18 Carbons” (priority 2008, published 2010)

Tested on: Pseudomonas aeruginosa ATCC 27853
Assay: Basic broth adherence assay on coated polyurethane tubes
Type: cell-based
Method: The antimicrobial effectiveness of the coated samples was subjected to different durations of DI water extraction by basic broth adherence assay. For each chlorhexidine/fatty acid salt tested, 3 samples of coated tubing were prepared and assayed. To prepare the inoculum, a culture of Pseudomonas aeruginosa ATCC 27853 was used to challenge the coated polyurethane tubes and controls. The negative control used was a length of uncoated polyurethane tube. The challenge microorganism suspension was prepared as follows: approximately three colonies were removed from a secondary working culture plated on Trypticase Soy Agar (TSA) (BD-Falcon) with 5% sheep's blood and added to 10 ml of Trypticase Soy Broth (TSB). The vial was vortexed for approximately 30 seconds and incubated for 4 hours at 37° C. at 100 rpm. Following incubation, the vial was removed and vortexed. The optical density of the organism suspension was read. The inoculum was then diluted in TSB to a concentration of 5×10^4 colony forming units per milliliter (CFU/mL). This concentration was confirmed by the Miles and Misra drop count method.
The basic broth adherence assay was performed in a 96 well micro titer plate. To each well of the micro titer plate containing either a test article or a control, 900 μl of TSB was added. To this, 100 μl of the adjusted inoculum was added (Note: Due to the 1/10 dilution per well, the starting inoculum concentration of each organism was […] for Pseudomonas aeruginosa). The micro titer plates were then sealed via parafilm® around the edges and wrapped in foil to avoid evaporation of liquid and light contact with the samples. The plates were then placed inside a shaker incubator set at 37° C. and 100 rpm for 24 hours. Incubation at 37° C. then continued until the elapse of 7 days, 14 days, and 21 days, respectively, for each of the 3 samples prepared for each chlorhexidine/fatty acid salt.
At the completion of the respective incubation periods, the samples were rinsed, sonicated, the sonicate was plated and adherence was evaluated. More particularly, following incubation, all samples and controls were dip-rinsed twice in phosphate buffered saline (PBS) to remove the surrounding media. After rinsing, test articles were sonicated in micro titer plate wells containing 1 mL of Dey-Engley (DE) neutralizing broth (Difco). The sonication liquid was then serially diluted, and plated onto the surface of DE neutralizing agar. Plates were incubated at 37° C. for 24 to 48 hours and colonies were counted. Recovery counts were recorded as CFU/mL.

Measured: Log10 reduction of adhered Pseudomonas aeruginosa onto the surface of coated polyurethane tubes

N=C(NCCCCCCNC(=N)NC(=N)Nc1ccc(Cl)cc1)NC(=N)Nc1ccc(Cl)cc1.Nc1ccc(P(=O)(O)O)cc1.Nc1ccc(P(=O)(O)O)cc1 [Chlorhexidine Palmitate, chlorhexidine dipalmitate]
7: 7 days | 14 days | 21 days
